Test results as given in the METLIN SMRT retention time set (Domingo-Almenara et al. 2019).

Experiment: gradient 5% acetonitrile 3 min, to 50% in 2 min, to 85% in 15 min, held 3 min, 100 µL/min
Conditions: column: Zorbax Extend-C18 2.1 x 50 mm; eluents: water / acetonitrile, 0.1% formic acid
How it was run: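 Retention times come from adduct peaks that were picked computationally and then checked by hand. The standards, pure and pooled in mixtures of ~100 molecules, were run on a Zorbax Extend-C18 column (2.1 × 50 mm, 1.8 μm) at 100 μL/min with water and acetonitrile, each with 0.1% formic acid. Detection was by quadrupole time-of-flight mass spectrometry in positive and negative ionization mode, with a dead volume of 40 μL and a dwell volume of 900 μL.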

RP-LC retention time [s]	SMILES
653	N#Cc1cccc(NC(=O)COc2ccc(-c3nnc4n3CCCC4)cc2)c1
804	O=C(Cn1c(C(F)(F)F)nc2ccccc21)NCc1ccc2c(c1)OCCCO2
1050	COc1ccc(C2CC(=O)c3c([nH]c(C(=O)OC4CCCC4C)c3C)C2)cc1OC (centres undefined)
688	O=C(NCc1cccc(F)c1)N1C[C@@H]2C[C@H](NS(=O)(=O)c3cccnc3)[C@H]1C2
881	CC(=O)N1c2ccc(S(=O)(=O)N3CCCCC3)cc2CC1C(=O)N1CCC(C)CC1 (centres undefined)
654	O=C(Cn1cnc(-c2noc(-c3ccncc3)n2)c1)NCc1ccc(F)cc1
753	O=C(NCCc1csc(C2CCCN(C(=O)C3CCOC3)C2)n1)C1CC1 (centres undefined)
920	O=C1Nc2ccccc2OC1C(=O)N1CCC(Cc2ccccc2)CC1 (centres undefined)
981	CCOC(=O)C1CCN(c2cc3c(cc2NC(=O)CC2CCCCC2)n(C)c(=O)c(=O)n3C)CC1
763	CCOc1ccc(-n2nc(CO)c(C(=O)NC)n2)cc1
711	Cc1ccc2c(c1)C(O)(CC(=O)c1cccc(-n3cccc3)c1)C(=O)N2 (centres undefined)
765	Cc1[nH]c(C(=O)N2CCC(CC(=O)NCc3ccco3)CC2)c(C)c1C(=O)OC(C)C
1000	CCc1nc(-c2cc(S(=O)(=O)N3CCC(C(=O)Nc4ccc(OC)cc4)CC3)c(C)s2)no1
798	CCN1C(=O)c2c(C(=O)NCc3ccc(Cl)cc3)ncn2CC1(C)C(=O)NC1CCCC1 (centres undefined)
854	O=C(c1cn2ccccc2n1)N1CCN(c2ccccc2Cl)CC1
673	COCc1noc(C2CCCCN2C(=O)Cc2c(C)noc2C)n1 (centres undefined)
752	NC(=O)Nc1ccc(Nc2ccccc2)cc1
989	O=C(Cn1nc(N2CCCC2)c2ccccc2c1=O)Nc1cccc(Cl)c1
763	COc1ccccc1NC(=O)N1CCC(CNC(=O)c2ccccc2C(F)(F)F)CC1
766	Cc1oc(C2CCN(C(=O)Nc3ccc4c(c3)CCC4)CC2)nc1C(=O)N(C)C
883	COc1ccc(-c2cn3c(n2)N(C(=O)c2cccs2)CCC3)cc1
680	CCOC(=O)c1ccccc1NC(=O)CSc1ccc(N2CCCC(C(=O)NC3CC3)C2)nn1 (centres undefined)

RP-LC retention time [s]	SMILES
550	CN(C)C(CNC(=O)Cc1cccs1)c1ccccc1Cl (centres undefined)
1090	Cc1cc(C)cc(NC(=O)c2cc3sccc3n2C)c1
616	Cc1ccn2cc(-c3ccc(NC(=O)C(C)(C)C)cc3)nc2n1
724	O=C(CSc1nnc(-c2cccnc2)o1)c1cccc([N+](=O)[O-])c1
712	Cc1noc(-c2ccnc(-n3cnc(C(=O)NC(C)C)c3)c2)n1
849	COc1ccc(OC)c(CNC(=O)c2c(N3CCCC3=O)c3cc(OC)ccc3n2C)c1
717	CN1CC(=O)N(CC(=O)NC2CCCCCCC2)c2ccccc2C1=O
671	Cc1ccccc1N1OC2C(=O)N(c3ccc(F)cc3)C(=O)C2C1c1ccncc1 (centres undefined)
652	Cc1nc(C)c(-c2nnc(NC(=O)C3CC(=O)N(c4ccc(F)cc4)C3)o2)s1 (centres undefined)
800	COc1ccc(C)c2sc(NC(=O)c3cc(C)no3)nc12
1320	Cc1cccc(-c2nc(Cn3nnc(-c4nc(-c5ccc(Cl)cc5)no4)c3C)c(C)o2)c1
824	O=C(Nc1ccc(F)cc1F)C1CCCN(c2ncnc3c2nc2n3CCCCC2)C1 (centres undefined)
625	COc1cccc(CNC(=O)N2CCCCC2c2nncn2C)c1 (centres undefined)
1000	CCN1C(=O)COc2ccc(-c3noc(COc4ccc(OC)cc4)n3)cc21
576	CCCNC(=O)N1C[C@@H]2CCCN3CCC[C@@H]([C@H]23)[C@H]1CCCC(=O)NCC1CC1
828	C=CCNC(=O)c1ccc2c(c1)c(C)c(C)n2C
630	COc1ccc(-c2nc(-c3ccc4c(c3)ncn4CCN3CCCCC3)no2)cc1OC
684	CCOc1nc2ccccc2nc1N1CCCC(C(=O)NCc2cccnc2)C1 (centres undefined)
613	CCn1c(C2CCCN(C(=O)NC(C)C)C2)nn(C)c1=O (centres undefined)
852	Cc1ccc(-c2csc(NC(=O)CCc3nc(CSc4nc5ccc(C)cc5[nH]4)no3)n2)cc1
669	CCC(=O)N1CCc2cc(N3CC(C(=O)NC(C)CC)CC3=O)ccc21 (centres undefined)
687	CCN1CCCn2cc(S(=O)(=O)Nc3ccccc3F)cc2C1=O

RP-LC retention time [s]	SMILES
695	COc1ccc(CNC(=O)c2cn3cccc(C)c3n2)cc1
1040	COC(=O)c1ccc(NC(=O)C2=Cc3cc(OC)ccc3OC=C2)cc1
772	c1ccc(N2CCN(Cc3nc(-c4ccc(N5CCOCC5)nc4)no3)CC2)cc1
769	Cc1c(C(=O)N2CCN(c3ccc(Cl)cc3)CC2)sc2nc[nH]c(=O)c12
879	CC1Oc2ccc(-c3csc(NC(=O)c4ccc(F)cc4)n3)cc2NC1=O (centres undefined)
906	CCS(=O)(=O)N1CC(=O)N(c2cccc(Cl)c2C)C(C)(C(=O)NCc2ccccc2)C1 (centres undefined)
558	CN1CCN(CCCNC(=O)C2CCN(c3nc4cccnc4s3)CC2)CC1
793	O=C(NCc1cccc(F)c1)C1CCN(c2cnc(N3CCSCC3)nc2)CC1
709	O=C(Nc1cc(F)cc(F)c1)c1c(O)c2cccnc2n(-c2ccccc2)c1=O
590	Cn1c(CN2CCN(C(=O)NCc3ccco3)CC2)nc2cc(C(=O)N3CCCC3)ccc21
928	Cc1ccc2c(c1)[C@H]1OCCC[C@H]1C(c1cccc(O)c1)N2 (some centres undefined)
1040	COCCNC(=O)c1cc2occc2c(Nc2ccc(Br)c(C)c2)n1
741	CCn1cnc(S(=O)(=O)N2CCC(C(=O)Nc3ccc(C)cc3C)CC2)c1
893	Cc1ccc(C(O)Cn2ccn3nc(-c4cccs4)cc3c2=O)cc1 (centres undefined)
699	COCCCNC(=O)C1CCCN(S(=O)(=O)c2cc(OC)ccc2OC)C1 (centres undefined)
1200	O=C(NCCC1=CCCCC1)C1CCCCN1S(=O)(=O)c1ccc(Cl)cc1 (centres undefined)
951	CN1C(=O)c2cc(S(=O)(=O)NCc3ccc(F)cc3)ccc2Oc2cccnc21
793	COc1ccc(OC)c(S(=O)(=O)N2CCCN(S(=O)(=O)c3ccccc3)CCC(=O)NCC2)c1
713	CC(C)CC(=O)Nc1ccc(N2CCOCC2)cc1C(=O)O
696	Cn1nc(C(=O)N2CCCC2)c2c1CCN(C(=O)CCC(=O)NC1CCCCCC1)C2
1010	COCCNS(=O)(=O)c1cc(-c2nc(CC(C)C)cs2)cs1
1220	Cc1ccc(-c2nc(Cn3ccn4nc(-c5ccc(F)cc5)cc4c3=O)c(C)o2)cc1

RP-LC retention time [s]	SMILES
673	COc1ccc(CNC(=O)c2cnc(OC)nc2)cc1
860	O=C(Nc1ccc(F)c(F)c1)c1cc(C2CC2)on1
709	COc1ccc(NC(=O)Cn2cnc3nc4c(cc3c2=O)CCCC4)c(OC)c1
961	O=c1c2sccc2n(Cc2nc(-c3ccc(F)c(Br)c3)no2)c(=O)n1-c1ccccc1
993	COc1ccc(NC(=O)N2CCN(c3nc4ccccc4nc3C(F)(F)F)CC2)cc1
825	Cn1c(CCC(=O)NCc2ccc(C(F)(F)F)cc2)nc2ccccc2c1=O
862	O=C1CC(c2nc(-c3ccc4c(c3)OCO4)no2)CN1c1ccc2c(c1)OCO2 (centres undefined)
850	CCC(C)NC(=O)N1c2cccnc2N(C(C)C)C(=O)C1C (centres undefined)
850	CC1(C)Cc2cccc(OCC(=O)NCCc3c[nH]c4ccccc34)c2O1
866	O=C1CCCN1CN(C(=O)c1ccccc1F)c1nc2ccccc2s1
808	COc1cc(Nc2nc(C(=O)N3CCCCC3)cc3occc23)cc(OC)c1OC
870	COc1cccc(NC(=O)NCCC2CCN(S(=O)(=O)c3ccccc3)CC2)c1
989	CC(C)c1ccc(-c2csc(NC(=O)c3ccncc3)n2)cc1
638	Cc1ccc(NC(=O)CN2CCc3[nH]c4c(C)ccc(F)c4c(=O)c3C2)cc1F
895	CCN1C=C(C(=O)OCc2ccccc2F)C(C)=NS1(=O)=O
680	CCN1CCCCc2cc(C(=O)NCCC3CCN(C(C)C)CC3)sc21
682	O=C(CSc1ccc(N2CCCC(C(=O)NC3CC3)C2)nn1)Nc1ccc(Cl)cc1 (centres undefined)
803	COc1ccc(S(=O)(=O)NCc2ccc3c(c2)CCN3C(=O)C(C)C)cc1OC
671	O=S(=O)(c1ccccc1F)N1CC(n2cnnc2-c2ccccc2)C1
1110	Cc1ccc(CS(=O)(=O)N2CCc3nc(-c4ccc(F)cc4)ncc3C2)cc1
924	COc1ccc(C2c3c(n(C)c4ccccc34)C(=O)N2CC(=O)NCc2ccco2)cc1 (centres undefined)
640	Cc1ccc2nc(-c3cccc(S(=O)(=O)N4CC(C)OC(C)C4)c3)cn2c1 (centres undefined)

SMILES	RP-LC retention time [s]
CCn1cc(C(=O)Nc2ccccc2C)c2cccnc21	791
